Key:
BTK = BTK (Homo sapiens, UniProt Q06187); test: Inhibitory activity against BTK (ADP-Glo + BTK Kinase enzyme system kit)
ITK = target: T1, ITK (Homo sapiens, UniProt Q08881); test: Inhibitory activity against ITK (ADP-Glo + ITK Kinase enzyme system kit); selectivity BTK vs. ITK; type: biochemical; details: for IC50: ITK enzyme 0.4 ng/uL, ATP 25 uM, luminescence, duplicate; for Selectivity (based on IC50): selectivity for the inhibitory activity of BTK vs. ITK, Equation 1
T1 construct: purchased Promega Corporation
T1 sequence (Q08881 1-620): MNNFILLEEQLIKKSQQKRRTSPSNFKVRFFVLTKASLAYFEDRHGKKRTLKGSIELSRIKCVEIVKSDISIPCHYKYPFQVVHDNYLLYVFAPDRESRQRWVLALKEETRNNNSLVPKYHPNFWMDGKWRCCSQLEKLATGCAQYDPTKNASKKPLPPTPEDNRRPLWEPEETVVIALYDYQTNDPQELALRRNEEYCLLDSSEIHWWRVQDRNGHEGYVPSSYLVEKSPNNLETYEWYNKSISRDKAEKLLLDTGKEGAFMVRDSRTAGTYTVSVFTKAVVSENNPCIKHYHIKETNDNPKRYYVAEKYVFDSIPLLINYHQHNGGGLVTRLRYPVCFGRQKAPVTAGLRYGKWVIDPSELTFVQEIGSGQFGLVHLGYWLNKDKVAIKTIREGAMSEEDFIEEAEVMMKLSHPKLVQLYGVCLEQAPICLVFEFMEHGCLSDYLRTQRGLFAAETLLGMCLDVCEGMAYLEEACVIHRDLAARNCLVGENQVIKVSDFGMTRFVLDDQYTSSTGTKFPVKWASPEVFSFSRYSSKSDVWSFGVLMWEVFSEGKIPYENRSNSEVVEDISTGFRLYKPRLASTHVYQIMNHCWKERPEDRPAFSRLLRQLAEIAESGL

Chain of BTK (Q06187 whole entry): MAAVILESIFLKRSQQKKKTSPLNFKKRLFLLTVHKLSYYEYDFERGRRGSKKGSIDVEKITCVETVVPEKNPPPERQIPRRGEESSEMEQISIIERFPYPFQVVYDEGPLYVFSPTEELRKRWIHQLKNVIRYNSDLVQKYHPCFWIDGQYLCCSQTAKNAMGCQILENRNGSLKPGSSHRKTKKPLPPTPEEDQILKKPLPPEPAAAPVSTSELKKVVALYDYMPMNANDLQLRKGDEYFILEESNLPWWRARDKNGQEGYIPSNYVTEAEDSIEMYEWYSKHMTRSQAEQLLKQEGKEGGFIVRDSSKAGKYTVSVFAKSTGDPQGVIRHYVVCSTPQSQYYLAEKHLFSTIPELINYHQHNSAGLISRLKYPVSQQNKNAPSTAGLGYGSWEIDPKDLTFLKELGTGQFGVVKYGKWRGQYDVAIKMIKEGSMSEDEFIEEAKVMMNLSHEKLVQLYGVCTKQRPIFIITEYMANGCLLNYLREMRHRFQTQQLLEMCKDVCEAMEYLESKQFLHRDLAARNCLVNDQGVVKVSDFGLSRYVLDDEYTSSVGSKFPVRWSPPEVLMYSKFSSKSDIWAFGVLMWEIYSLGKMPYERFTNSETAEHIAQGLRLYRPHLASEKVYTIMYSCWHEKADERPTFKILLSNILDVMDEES

IC50 (BTK) [nM]	IC50 (ITK) [nM]	Selectivity (based on IC50) (ITK)	SMILES
2.6	> 1000	>384.6	C=CC(=O)N1C[C@@H]2C[C@H]1C[C@H]2n1nc(-c2ccc(Oc3ccccc3)cc2)c2c(N)ncnc21 [Ex. 14, 1-((1S,4S,5R)-5-(4-amino-3-(4-phenoxyphenyl)-1H-pyrazolo[3,4-d]pyrimidin-1-yl)-2-azabicyclo[2.2.1]heptan-2-yl)prop-2-en-1-one]
2.1	123	58.3	C#CC(=O)N1CC2CC1C(n1nc(-c3cccc(Oc4ccccc4)c3)c3c(N)ncnc31)C2 (stereo not drawn) [Ex. 15, 1-(6-(4-amino-3-(3-phenoxyphenyl)-1H-pyrazolo[3,4-d]pyrimidin-1-yl)-2-azabicyclo[2.2.1]heptan-2-yl)prop-2-yn-1-one]
4.7	> 1000	>212.8	C#CC(=O)N1CC2CC1C(n1nc(-c3ccc(C(=O)Nc4ccccc4)cc3)c3c(N)ncnc31)C2 (stereo not drawn) [Ex. 17, 4-(4-amino-1-(2-propioloyl-2-azabicyclo[2.2.1]heptan-6-yl)-1H-pyrazolo[3,4-d]pyrimidin-3-yl)-N-phenylbenzamide]
4	> 1000	>250	C=CC(=O)N1CC2CC1C(n1nc(-c3ccc(S(=O)(=O)c4ccccc4)cc3)c3c(N)ncnc31)C2 (stereo not drawn) [Ex. 32, 1-(6-(4-amino-3-(4-(phenylsulfonyl)phenyl)-1H-pyrazolo[3,4-d]pyrimidin-1-yl)-2-azabicyclo[2.2.1]heptan-2-yl)prop-2-en-1-one]
3.3	> 1000	>303.0	C=CC(=O)N1CC2CC1C(n1nc(-c3ccc(Sc4ccccc4)cc3)c3c(N)ncnc31)C2 (stereo not drawn) [Ex. 33, 1-(6-(4-amino-3-(4-(phenylthio)phenyl)-1H-pyrazolo[3,4-d]pyrimidin-1-yl)-2-azabicyclo[2.2.1]heptan-2-yl)prop-2-en-1-one]
4.4	308	69.9	C=CC(=O)N1CC2CC1C(n1nc(-c3ccc(Oc4cccc(F)c4)cc3)c3c(N)ncnc31)C2 (stereo not drawn) [Ex. 34, 1-(6-(4-amino-3-(4-(3-fluorophenoxy)phenyl)-1H-pyrazolo[3,4-d]pyrimidin-1-yl)-2-azabicyclo[2.2.1]heptan-2-yl)prop-2-en-1-one]
2.2	132	60.0	C=CC(=O)N1CC2CC1C(n1nc(-c3ccc(Oc4ccccc4)cc3F)c3c(N)ncnc31)C2 (stereo not drawn) [Ex. 35, 1-(6-(4-amino-3-(2-fluoro-4-phenoxyphenyl)-1H-pyrazolo[3,4-d]pyrimidin-1-yl)-2-azabicyclo[2.2.1]heptan-2-yl)prop-2-en-1-one]
4.5	> 1000	>222.2	C=CC(=O)N1CC2CC1C(n1nc(-c3ccc(Oc4cccc(OC)c4)cc3)c3c(N)ncnc31)C2 (stereo not drawn) [Ex. 41, 1-(6-(4-amino-3-(4-(3-methoxyphenoxy)phenyl)-1H-pyrazolo[3,4-d]pyrimidin-1-yl)-2-azabicyclo[2.2.1]heptan-2-yl)prop-2-en-1-one]
3.4	> 500	>147	C=CC(=O)N1CC2CC1C(n1nc(-c3ccc(Oc4cccc(N(C)C)c4)cc3)c3c(N)ncnc31)C2 (stereo not drawn) [Ex. 42, 1-(6-(4-amino-3-(4-(3-(dimethylamino)phenoxy)phenyl)-1H-pyrazolo[3,4-d]pyrimidin-1-yl)-2-azabicyclo[2.2.1]heptan-2-yl)prop-2-en-1-one]
3.1	268	86.4	C=CC(=O)N1CC2CC1C(n1nc(-c3ccc(Oc4cccc(C(F)(F)F)c4)cc3)c3c(N)ncnc31)C2 (stereo not drawn) [Ex. 43, 1-(6-(4-amino-3-(4-(3-(trifluoromethyl)phenoxy)phenyl)-1H-pyrazolo[3,4-d]pyrimidin-1-yl)-2-azabicyclo[2.2.1]heptan-2-yl)prop-2-en-1-one]
4.7	401	85.3	C=CC(=O)N1CC2CC1C(n1nc(-c3ccc(C(=O)Nc4cccc(Cl)c4)cc3)c3c(N)ncnc31)C2 (stereo not drawn) [Ex. 48, 4-(1-(2-acryloyl-2-azabicyclo[2.2.1]heptan-6-yl)-4-amino-1H-pyrazolo[3,4-d]pyrimidin-3-yl)-N-(3-chlorophenyl)benzamide]
3.5	> 500	>142.9	C=CC(=O)N1CC2CC1C(n1nc(-c3ccc(C(=O)Nc4ccccn4)cc3)c3c(N)ncnc31)C2 (stereo not drawn) [Ex. 49, 4-(1-(2-acryloyl-2-azabicyclo[2.2.1]heptan-6-yl)-4-amino-1H-pyrazolo[3,4-d]pyrimidin-3-yl)-N-(pyridin-2-yl)benzamide]
2.7	> 1000	>370.3	C=CC(=O)N1CC2CC1C(n1nc(-c3ccc(C(=O)Nc4cnccn4)cc3)c3c(N)ncnc31)C2 (stereo not drawn) [Ex. 53, 4-(1-(2-acryloyl-2-azabicyclo[2.2.1]heptan-6-yl)-4-amino-1H-pyrazolo[3,4-d]pyrimidin-3-yl)-N-(pyrazin-2-yl)benzamide]
2.2	> 1000	>454.5	C=CC(=O)N1CC2CC1C(n1nc(-c3ccc(S(=O)(=O)Nc4ccccc4)cc3)c3c(N)ncnc31)C2 (stereo not drawn) [Ex. 54, 4-(1-(2-acryloyl-2-azabicyclo[2.2.1]heptan-6-yl)-4-amino-1H-pyrazolo[3,4-d]pyrimidin-3-yl)-N-phenylbenzenesulfonamide]
2.8	110	39.1	C=CC(=O)N1CC2CCC1C(n1nc(-c3ccc(Oc4ccccc4)cc3)c3c(N)ncnc31)C2 (stereo not drawn) [Ex. 59, 1-(6-(4-amino-3-(4-phenoxyphenyl)-1H-pyrazolo[3,4-d]pyrimidin-1-yl)-2-azabicyclo[2.2.2]octan-2-yl)prop-2-en-1-one]
1.5	> 500	>333.3	Nc1ncnc2c1c(-c1ccc(Oc3ccccc3)cc1)nn2C1CC2CC1N(C(=O)/C=C/CN1CCCCC1)C2 (stereo not drawn) [Ex. 63, (E)-1-(6-(4-amino-3-(4-phenoxyphenyl)-1H-pyrazolo[3,4-d]pyrimidin-1-yl)-2-azabicyclo[2.2.1]heptan-2-yl)-4-(piperidin-1-yl)but-2-en-1-one]
1.6	71.5	44.7	C=CC(=O)N1CC2CC1C(n1nc(-c3ccc(C(=O)Nc4ccccn4)cc3F)c3c(N)ncnc31)C2 (stereo not drawn) [Ex. 64, 4-(1-(2-acryloyl-2-azabicyclo[2.2.1]heptan-6-yl)-4-amino-1H-pyrazolo[3,4-d]pyrimidin-3-yl)-3-fluoro-N-(pyridin-2-yl)benzamide]
0.5	54.1	108.2	C=CC(=O)N1CC2CC1C(n1nc(-c3ccc(C(=O)Nc4cc(F)ccn4)cc3)c3c(N)ncnc31)C2 (stereo not drawn) [Ex. 67, 4-(1-(2-acryloyl-2-azabicyclo[2.2.1]heptan-6-yl)-4-amino-1H-pyrazolo[3,4-d]pyrimidin-3-yl)-N-(4-fluoropyridin-2-yl)benzamide]
2.4	176	73.1	C=CC(=O)N1CC2CC1C(n1nc(-c3ccc(C(=O)Nc4cc(C)ccn4)cc3)c3c(N)ncnc31)C2 (stereo not drawn) [Ex. 68, 4-(1-(2-acryloyl-2-azabicyclo[2.2.1]heptan-6-yl)-4-amino-1H-pyrazolo[3,4-d]pyrimidin-3-yl)-N-(4-methylpyridin-2-yl)benzamide]
1.3	235	181.2	C=CC(=O)N1C[C@@H]2C[C@@H]1[C@@H](n1nc(-c3ccc(C(=O)Nc4ccccn4)cc3)c3c(N)ncnc31)C2 [Ex. 69, 4-(1-((1R,4R,6S)-2-acryloyl-2-azabicyclo[2.2.1]heptan-6-yl)-4-amino-1H-pyrazolo[3,4-d]pyrimidin-3-yl)-N-(pyridin-2-yl)benzamide]
0.9	133	147.7	C=CC(=O)N1CC2CC1C(n1nc(-c3ccc(C(=O)Nc4cc(C#N)ccn4)cc3)c3c(N)ncnc31)C2 (stereo not drawn) [Ex. 71, 4-(1-(2-acryloyl-2-azabicyclo[2.2.1]heptan-6-yl)-4-amino-1H-pyrazolo[3,4-d]pyrimidin-3-yl)-N-(4-cyanopyridin-2-yl)benzamide]
1.5	47.9	31.9	C=CC(=O)N1C[C@@H]2C[C@H]1[C@@H](n1nc(-c3ccc(C(=O)Nc4cc(F)ccn4)cc3)c3c(N)ncnc31)C2 [Ex. 72, 4-(1-((1S,4R,6S)-2-acryloyl-2-azabicyclo[2.2.1]heptan-6-yl)-4-amino-1H-pyrazolo[3,4-d]pyrimidin-3-yl)-N-(4-fluoropyridin-2-yl)benzamide]
4	305	76.2	N#CC(=CC1CC1)C(=O)N1C[C@H]2CC(n3nc(-c4ccc(C(=O)Nc5ccccn5)cc4)c4c(N)ncnc43)[C@H]1C2 (stereo partly drawn) [Ex. 75, 4-(4-amino-1-((1R,4R)-2-(2-cyano-3-cyclopropylacryloyl)-2-azabicyclo[2.2.1]heptan-6-yl)-1H-pyrazolo[3,4-d]pyrimidin-3-yl)-N-(pyridin-2-yl)benzamide]

Source: patent US10399988B2, “4-aminopyrazolo[3,4-d]pyrimidinylazabicyclo derivatives and pharmaceutical composition comprising the same” (Daewoong Pharmaceutical Co., Ltd., priority 2016, dated 2019)
